Laboratory results taken from patent US20200079793A1, “COMPOUNDS AND METHODS FOR MODULATING ADENOSINE A2B RECEPTOR AND ADENOSINE A2A RECEPTOR” (CORVUS PHARMACEUTICALS, INC., priority 2018, published 2020).

Assays:
[1] = molecular target: T1, Adenosine A2B Receptor (Homo sapiens, UniProt P29275); assay: Activity assay of adenosine receptor modulators, Adenosine A2B Receptor (Table 1); assay type: biochemical; settings: cAMP; read-out: A2BR cAMP IC50
T1 sequence (P29275 1-332): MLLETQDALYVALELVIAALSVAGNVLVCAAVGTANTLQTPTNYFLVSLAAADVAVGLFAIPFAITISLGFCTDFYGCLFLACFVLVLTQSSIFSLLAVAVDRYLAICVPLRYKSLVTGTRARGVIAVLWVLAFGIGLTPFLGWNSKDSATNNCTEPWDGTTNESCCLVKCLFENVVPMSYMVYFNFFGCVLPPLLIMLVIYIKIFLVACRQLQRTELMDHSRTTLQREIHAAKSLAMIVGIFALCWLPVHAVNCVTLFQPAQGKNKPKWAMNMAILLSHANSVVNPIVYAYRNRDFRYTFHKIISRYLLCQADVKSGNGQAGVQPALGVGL
Method: (§1) Compounds (e.g., adenosine receptor modulators) were tested for its biological activity. The assay results in Table 1 indicate (+ means >1 μM; ++ means 100 nM to 1 μM; +++ means <100 nM).

[2] = molecular target: Adenosine A2A Receptor (Homo sapiens, UniProt P29274); assay: Activity assay of adenosine receptor modulators, Adenosine A2A Receptor (Table 1); assay type: biochemical; settings: cAMP; read-out: A2AR cAMP IC50
Method: as §1

[3] = molecular target: T2, A3R (Homo sapiens, UniProt P0DMS8); assay: Activity assay of adenosine receptor modulators, A3R cAMP (Table 1); assay type: cell-based
T2 sequence (P0DMS8 1-318): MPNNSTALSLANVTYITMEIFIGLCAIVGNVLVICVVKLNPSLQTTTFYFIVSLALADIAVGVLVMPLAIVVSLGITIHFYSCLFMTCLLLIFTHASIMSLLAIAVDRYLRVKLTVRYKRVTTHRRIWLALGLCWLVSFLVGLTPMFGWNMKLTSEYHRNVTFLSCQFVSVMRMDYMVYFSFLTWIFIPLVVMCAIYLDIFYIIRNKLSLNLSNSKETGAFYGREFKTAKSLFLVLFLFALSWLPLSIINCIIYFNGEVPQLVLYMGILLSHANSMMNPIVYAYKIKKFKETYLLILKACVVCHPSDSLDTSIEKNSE
Method: as §1

[4] = molecular target: T3, A1R (Homo sapiens, UniProt P30542); assay: Activity assay of adenosine receptor modulators, A1R cAMP (Table 1); assay type: cell-based
T3 sequence (P30542 1-326): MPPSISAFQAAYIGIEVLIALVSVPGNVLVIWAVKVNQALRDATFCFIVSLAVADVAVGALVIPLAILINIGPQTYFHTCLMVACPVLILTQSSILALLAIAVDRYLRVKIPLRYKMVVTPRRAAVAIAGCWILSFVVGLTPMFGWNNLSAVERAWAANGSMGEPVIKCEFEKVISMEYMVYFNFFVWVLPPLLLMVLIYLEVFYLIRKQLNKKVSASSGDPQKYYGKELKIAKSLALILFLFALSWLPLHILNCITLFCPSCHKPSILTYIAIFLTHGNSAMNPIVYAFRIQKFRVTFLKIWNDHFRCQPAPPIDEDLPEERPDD
Method: as §1

Sequence of Adenosine A2A Receptor (P29274 whole entry): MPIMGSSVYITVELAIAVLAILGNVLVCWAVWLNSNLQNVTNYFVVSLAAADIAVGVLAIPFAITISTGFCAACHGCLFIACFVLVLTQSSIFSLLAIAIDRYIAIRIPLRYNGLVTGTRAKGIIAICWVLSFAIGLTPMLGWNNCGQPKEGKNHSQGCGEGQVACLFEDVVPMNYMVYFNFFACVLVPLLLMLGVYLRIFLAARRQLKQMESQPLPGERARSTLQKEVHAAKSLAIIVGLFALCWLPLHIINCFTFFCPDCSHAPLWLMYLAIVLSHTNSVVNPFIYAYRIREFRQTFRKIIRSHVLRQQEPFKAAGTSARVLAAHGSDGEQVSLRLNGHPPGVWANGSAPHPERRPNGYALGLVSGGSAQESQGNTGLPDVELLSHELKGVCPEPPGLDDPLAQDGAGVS

| IC50 [1] [nM] | IC50 [2] [nM] | IC50 [3] [nM] | IC50 [4] [nM] | SMILES |
| --- | --- | --- | --- | --- |
| < 100 | 100 to 1000 | > 1000 | > 1000 | CO[C@@H]1CCN(C(=O)c2nc(N[C@@H](C)c3cncc(F)c3)nc3nc(C)sc23)C1 [Example 40, (5-(((S)-1-(5-Fluoropyridin-3-yl)ethyl)amino)-2-methylthiazolo[4,5-d]pyrimidin-7-yl)((R)-3-methoxypyrrolidin-1-yl)methanone] |
| < 100 | > 1000 | > 1000 | > 1000 | CO[C@H]1CCN(C(=O)c2nc(N[C@@H](C)c3cncc(F)c3)nc3nc(C)sc23)C1 [Example 41, (5-(((S)-1-(5-Fluoropyridin-3-yl)ethyl)amino)-2-methylthiazolo[4,5-d]pyrimidin-7-yl)((S)-3-methoxypyrrolidin-1-yl)methanone] |
| < 100 | 100 to 1000 | > 1000 | > 1000 | Cc1nc2nc(N[C@@H](C)c3cncc(F)c3)nc(C(=O)N3CC[C@H](CO)C3)c2s1 [Example 50, (5-(((S)-1-(5-Fluoropyridin-3-yl)ethyl)amino)-2-methylthiazolo[4,5-d]pyrimidin-7-yl)((S)-3-(hydroxymethyl)pyrrolidin-1-yl)methanone] |
| < 100 | > 1000 | > 1000 | > 1000 | CC(=O)NC[C@@H]1CCN(C(=O)c2nc(N[C@@H](C)c3cncc(F)c3)nc3nc(C)sc23)C1 [Example 52, N—(((S)-1-(5-(((S)-1-(5-Fluoropyridin-3-yl)ethyl)amino)-2-methylthiazolo[4,5-d]pyrimidine-7-carbonyl)pyrrolidin-3-yl)methyl)acetamide] |
| < 100 | < 100 | < 100 | > 1000 | Cc1nc2nc(N[C@@H](C)c3cncc(F)c3)nc(C(=O)N3CC(NC(=O)C4CCC4)C3)c2s1 [Example 56, (S)—N-(1-(5-((1-(5-Fluoropyridin-3-yl)ethyl)amino)-2-methylthiazolo[4,5-d]pyrimidine-7-carbonyl)azetidin-3-yl)cyclobutanecarboxamide] |
| < 100 | < 100 | 100 to 1000 | > 1000 | Cc1nc2nc(N[C@@H](C)c3cncc(F)c3)nc(C(=O)N3CC(NC(=O)NC(C)(C)C)C3)c2s1 [Example 57, (S)-1-(tert-Butyl)-3-(1-(5-((1-(5-fluoropyridin-3-yl)ethyl)amino)-2-methylthiazolo[4,5-d]pyrimidine-7-carbonyl)azetidin-3-yl)urea] |
| < 100 | < 100 | 100 to 1000 | > 1000 | Cc1nc2nc(N[C@@H](C)c3cncc(F)c3)nc(C(=O)N3CC(NC(=O)c4ccccc4F)C3)c2s1 [Example 59, (S)-2-Fluoro-N-(1-(5-((1-(5-fluoropyridin-3-yl)ethyl)amino)-2-methylthiazolo[4,5-d]pyrimidine-7-carbonyl)azetidin-3-yl)benzamide] |
| < 100 | < 100 | 100 to 1000 | > 1000 | Cc1nc2nc(N[C@@H](C)c3cncc(F)c3)nc(C(=O)N3CC(NC(=O)NC4CCCC4)C3)c2s1 [Example 60, (S)-1-Cyclopentyl-3-(1-(5-((1-(5-fluoropyridin-3-yl)ethyl)amino)-2-methylthiazolo[4,5-d]pyrimidine-7-carbonyl)azetidin-3-yl)urea] |
| 100 to 1000 | < 100 | 100 to 1000 | > 1000 | Cc1nc2nc(N[C@@H](C)c3ccccn3)nc(C(=O)N3CC(NC(=O)NC(C)(C)C)C3)c2s1 [Example 63, (S)-1-(tert-Butyl)-3-(1-(2-methyl-5-((1-(pyridin-2-yl)ethyl)amino)thiazolo[4,5-d]pyrimidine-7-carbonyl)azetidin-3-yl)urea] |

Further lines, the compound ahead of its results:

| SMILES | IC50 [1] [nM] | IC50 [2] [nM] | IC50 [3] [nM] | IC50 [4] [nM] |
| --- | --- | --- | --- | --- |
| COC[C@@H]1CCN(C(=O)c2nc(N[C@@H](C)c3cncc(F)c3)nc3nc(C)sc23)C1 [Example 47, (5-(((S)-1-(5-Fluoropyridin-3-yl)ethyl)amino)-2-methylthiazolo[4,5-d]pyrimidin-7-yl)((R)-3-(methoxymethyl)pyrrolidin-1-yl)methanone] | < 100 | > 1000 | > 1000 | > 1000 |
| COC[C@H]1CCN(C(=O)c2nc(N[C@@H](C)c3cncc(F)c3)nc3nc(C)sc23)C1 [Example 48, (5-(((S)-1-(5-Fluoropyridin-3-yl)ethyl)amino)-2-methylthiazolo[4,5-d]pyrimidin-7-yl)((S)-3-(methoxymethyl)pyrrolidin-1-yl)methanone] | < 100 | 100 to 1000 | > 1000 | > 1000 |
| Cc1nc2nc(N[C@@H](C)c3cncc(F)c3)nc(C(=O)N3CC[C@@H](CO)C3)c2s1 [Example 49, (5-(((S)-1-(5-Fluoropyridin-3-yl)ethyl)amino)-2-methylthiazolo[4,5-d]pyrimidin-7-yl)((R)-3-(hydroxymethyl)pyrrolidin-1-yl)methanone] | < 100 | > 1000 | > 1000 | > 1000 |
| COCC1CN(C(=O)c2nc(N[C@@H](C)c3cncc(F)c3)nc3nc(C)sc23)C1 [Example 51, (S)-(5-((1-(5-Fluoropyridin-3-yl)ethyl)amino)-2-methylthiazolo[4,5-d]pyrimidin-7-yl)(3-(methoxymethyl)azetidin-1-yl)methanone] | < 100 | 100 to 1000 | > 1000 | > 1000 |
| CC(=O)NC[C@H]1CCN(C(=O)c2nc(N[C@@H](C)c3cncc(F)c3)nc3nc(C)sc23)C1 [Example 53, N—(((R)-1-(5-(((S)-1-(5-Fluoropyridin-3-yl)ethyl)amino)-2-methylthiazolo[4,5-d]pyrimidine-7-carbonyl)pyrrolidin-3-yl)methyl)acetamide] | 100 to 1000 | > 1000 | > 1000 | > 1000 |
| Cc1nc2nc(N[C@@H](C)c3cncc(F)c3)nc(C(=O)N3CC(NC(=O)C4(C)CC4)C3)c2s1 [Example 54, (S)—N-(1-(5-((1-(5-Fluoropyridin-3-yl)ethyl)amino)-2-methylthiazolo[4,5-d]pyrimidine-7-carbonyl)azetidin-3-yl)-1-methylcyclopropane-1-carboxamide] | < 100 | < 100 | < 100 | > 1000 |
| Cc1nc2nc(N[C@@H](C)c3cncc(F)c3)nc(C(=O)N3CC(NC(=O)C4CCCC4)C3)c2s1 [Example 55, (S)—N-(1-(5-((1-(5-Fluoropyridin-3-yl)ethyl)amino)-2-methylthiazolo[4,5-d]pyrimidine-7-carbonyl)azetidin-3-yl)cyclopentanecarboxamide] | < 100 | < 100 | < 100 | > 1000 |
| Cc1nc2nc(N[C@@H](C)c3cncc(F)c3)nc(C(=O)N3CC(NC(=O)c4ccccc4)C3)c2s1 [Example 58, (S)—N-(1-(5-((1-(5-Fluoropyridin-3-yl)ethyl)amino)-2-methylthiazolo[4,5-d]pyrimidine-7-carbonyl)azetidin-3-yl)benzamide] | < 100 | < 100 | < 100 | > 1000 |
| Cc1nc2nc(N[C@@H](C)c3cncc(F)c3)nc(C(=O)N3CC(NC(=O)C4CCCCC4)C3)c2s1 [Example 61, (S)—N-(1-(5-((1-(5-Fluoropyridin-3-yl)ethyl)amino)-2-methylthiazolo[4,5-d]pyrimidine-7-carbonyl)azetidin-3-yl)cyclohexanecarboxamide] | < 100 | < 100 | < 100 | > 1000 |
| Cc1nc2nc(N[C@@H](C)c3ccccn3)nc(C(=O)N3CC(NC(=O)C(C)(C)C)C3)c2s1 [Example 62, 2,2-Dimethyl-N-[1-[2-methyl-5-[[(S)-1-(2-pyridyl)ethyl]amino]thiazolo[4,5-d]pyrimidine-7-carbonyl]azetidin-3-yl]propanamide] | < 100 | < 100 | 100 to 1000 | > 1000 |
| Cc1nc2nc(N[C@@H](C)c3cccnc3)nc(C(=O)N3CC(NC(=O)C(C)(C)C)C3)c2s1 [Example 64, (S)—N-(1-(2-Methyl-5-((1-(pyridin-3-yl)ethyl)amino)thiazolo[4,5-d]pyrimidine-7-carbonyl)azetidin-3-yl)pivalamide] | 100 to 1000 | < 100 | 100 to 1000 | > 1000 |
